Values after ≈ are worked out from the molar mass of the structure shown. Where a name gives a salt, the structure may show the parent alone.
Assays:
[1] = tested on: Lemna minor; test: Lemna minor growth inhibition assay (OECD Test No. 221); type: in vivo; conditions: for aquatic toxicity category according to U.S. EPA: based on the calculated EC50 values against Lemna minor
Method: Four types of polymers were tested, namely low- (ChiS), medium- (ChiM) and high- (ChiL) molecular-weight chitosan and chitosan with a degree of deacetylation of approximately 50% (Chi50). The chitosan samples were tested in three concentrations (50 mg/L, 500 mg/L and 5000 mg/L) and were obtained by dissolving the polymers in 0.3% acetic acid, followed by dilution with culture medium in a 1:2 ratio.
Four types of chitooligosaccharides were tested: D-glucosamine hydrochloride (G), N-acetyl-D-glucosamine (NAG or A), chitobiose dihydrochloride (2G), and carboxymethyl chitosan (CMChi). Three chitooligosaccharides (G, NAG, 2G) were tested in three concentrations: 5 mg/L, 50 mg/L and 250 mg/L, being dissolved directly into L. minor culture medium. CMChi was tested in four concentrations (50 mg/L, 250 mg/L, 500 mg/L and 5000 mg/L) and the solutions were prepared by dissolving the polymer directly in L. minor culture medium.
Lemna minor, the common duckweed, was used as a test organism for the assessment of growth response of the tested chitosan samples and chitooligosaccharides through a growth inhibition assay. Standard conditions as described in OECD guideline were maintained during both L. minor culture and growth inhibition assay.
The effects of the chitosan samples and the chitooligosaccharides were tested using a number of 10 fronds per test vessel, with an exposure period of 7 days. In the same conditions, two controls were tested: a negative control (C−), represented by culture medium, and a positive control (C+), represented by 0.5% zinc chloride. All samples and controls were tested in triplicate.
The endpoints of the growth inhibition test were represented by number of fronds, which was used for the plotting of dose–response curves and the calculation of half maximal effective concentration (EC50). The tested samples were classified into aquatic ecotoxicity categories according to U.S. EPA [47] based on the calculated EC50 values: very highly toxic (<0.1 mg/L), highly toxic (>0.1–1 mg/L), moderately toxic (>1–10 mg/L), slightly toxic (>10–100 mg/L) and practically non-toxic (>100 mg/L).
PAST software was used for the statistical analysis of data, with Quest Graph™ EC50 Calculator [65] being used for the calculation of EC50 values. The Shapiro–Wilk W test was used for assessing the normality of the data, with the distribution analysis being followed by an ANOVA analysis. The normally distributed data were analyzed with parametric tests, the homogeneity of variance among treatments was determined through Levene’s test, with Tuckey’s post hoc test being used for the analysis of variances. The non-normally distributed data were analyzed with the Kruskal–Wallis test, variances being further analyzed using Dunn’s post hoc test. The Pearson linear r correlation test was used for all correlation analysis. The differences were considered significant for p values < 0.05.

[2] = tested on: Lemna trisulca; design: method as in PMID 17074410; conditions: ref [48], cited from earlier work
[3] = tested on: Lemna gibba; design: method as in PMID 16666961; conditions: D-glucosamine 50 mM, ref [49]; cited from earlier work
[4] = number of fronds, exposure period of 7 days

SMILES | aquatic toxicity category according to U.S. EPA [1] | EC50 against Lemna minor [1, 4] | also measured
N[C@H]1C(O)O[C@H](CO)[C@@H](O)[C@@H]1O (stereo partly drawn) [G, D-glucosamine hydrochloride] | slightly toxic (slightly toxic (>10–100 mg/L)) |  | EC50 ([1]; Lemna minor, 168 h, number of fronds, exposure period of 7 days, read-out: EC50 against Lemna minor): 11.6 µg/mL
Cl.N[C@H]1[C@H](O[C@H]2[C@H](O)[C@@H](N)C(O)O[C@@H]2CO)O[C@H](CO)[C@@H](O)[C@@H]1O (some centres unmarked) [2G, chitobiose dihydrochloride] |  | 266.36 µg/mL | 
N[C@H]1C(O)O[C@H](CO)[C@@H](O)[C@@H]1O (stereo partly drawn) [D, D-glucosamine] |  |  | level of zeaxanthin and antheraxanthin, times higher than the control ([2]; Lemna trisulca): approximately 30 times; inhibition of violaxanthin synthesis from zeaxanthin and antheraxanthin ([2]; even at a concentration of 0.01%): induced the inhibition; inhibition of the respiration rate [3]: 30%
CC(=O)N[C@@H]1[C@@H](O)[C@H](O)[C@@H](CO)O[C@@H]1O [A, N-acetyl-D-glucosamine] | practically non-toxic (practically non-toxic (>100 mg/L)) | 678.22 µg/mL (≈ 3.07 mM) | 
